Earlier results in patent publication US20200078333A1, “Healthier Aging in Domesticated Animals” (priority 2016, published 2020).

How the values were obtained:
CB1 [1] = molecular target: T1, CB1 (Homo sapiens, UniProt P21554); details: Ca2+ flux induced by AEA
[2] = system: nitric oxide (NO) production; details: read-out: IC50 for inhibition of NO production
[3] = molecular target: human CB1 cannabinoid receptors (Homo sapiens, UniProt P21554); details: selective binding; function as antagonists/inverse agonists
CB1 [4] = molecular target: T1, CB1; details: read-out: binding affinity to CB1
CB2 [5] = molecular target: T2, CB2 (Homo sapiens, UniProt P34972)
[6] = healthy as well as unhealthy persons
CB2 [7] = molecular target: T2, CB2; remark: listed apart in the source

T2 sequence (P34972 whole entry, species assumed): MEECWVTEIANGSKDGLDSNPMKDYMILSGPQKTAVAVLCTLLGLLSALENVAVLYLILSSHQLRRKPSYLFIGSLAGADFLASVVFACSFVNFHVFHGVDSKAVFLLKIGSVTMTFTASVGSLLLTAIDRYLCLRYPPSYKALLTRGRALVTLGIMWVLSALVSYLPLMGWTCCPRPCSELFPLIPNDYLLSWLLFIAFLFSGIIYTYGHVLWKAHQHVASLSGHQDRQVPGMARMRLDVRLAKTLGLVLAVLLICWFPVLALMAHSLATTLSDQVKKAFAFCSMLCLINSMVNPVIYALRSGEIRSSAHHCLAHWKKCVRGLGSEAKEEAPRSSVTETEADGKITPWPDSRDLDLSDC
T1 sequence (P21554 whole entry, species assumed): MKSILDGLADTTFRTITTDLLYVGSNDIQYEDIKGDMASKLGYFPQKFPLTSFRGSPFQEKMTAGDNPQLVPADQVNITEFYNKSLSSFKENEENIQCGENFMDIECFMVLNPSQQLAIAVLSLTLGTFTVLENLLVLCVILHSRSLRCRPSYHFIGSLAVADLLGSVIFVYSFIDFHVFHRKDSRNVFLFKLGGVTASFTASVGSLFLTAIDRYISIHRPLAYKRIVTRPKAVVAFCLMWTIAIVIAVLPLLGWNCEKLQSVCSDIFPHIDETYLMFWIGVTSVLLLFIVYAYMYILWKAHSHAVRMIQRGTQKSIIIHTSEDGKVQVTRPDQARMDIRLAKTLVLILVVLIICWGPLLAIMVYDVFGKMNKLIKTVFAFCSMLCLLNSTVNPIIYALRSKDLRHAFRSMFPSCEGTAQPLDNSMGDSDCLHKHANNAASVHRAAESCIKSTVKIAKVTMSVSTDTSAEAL
human CB1 cannabinoid receptors, sequence (P21554 whole entry): as the sequence (P21554 whole entry, species assumed) above

CC1(C)[C@@H](O)CC[C@]2(C)[C@H]3C(=O)C=C4[C@@H]5C[C@@](C)(C(=O)O)CC[C@]5(C)CC[C@@]4(C)[C@]3(C)CC[C@@H]12 [18β-glycyrrhetinic acid]
inhibition in responses to CB1 agonist (CB1 [1]): more than 90%

C=CCc1ccc(O)c(-c2cc(CC=C)ccc2O)c1 [magnolol]
IC50 [2]: ~6200 nM

Oc1ccc(/C=C/c2cc(O)cc(O)c2)cc1 [trans-resveratrol]
affinity for human CB1 cannabinoid receptors [3]: nanomolar affinities

CCCCCC=CCCC=CC=CC(=O)N1CCCCC1 [1-[(2E,4E,8Z)-tetradecatrienoyl] piperidine]
Ki (CB1 [4]): 800 nM
CB1/CB2 affinity (CB2 selectivity) (CB2 [5]; ratio CB1/CB2): ~5
Ki (CB2 [5]; read-out: binding affinity to CB2): 160 nM

COC1=C(OC)C(=O)C(C/C=C(\C)CC/C=C(\C)CC/C=C(\C)CC/C=C(\C)CC/C=C(\C)CC/C=C(\C)CC/C=C(\C)CC/C=C(\C)CC/C=C(\C)CCC=C(C)C)=C(C)C1=O [CoQ10, ubiquinone]
tolerated daily dosage [6]: up to 3600 mg

COc1cc(/C=C/C(=O)CC(=O)/C=C/c2ccc(O)c(OC)c2)ccc1O [curcumin]
affinity for human CB1 cannabinoid receptors [3]: nanomolar affinities
affinity for CB2 (CB2 [7]): micromolar affinity
